A value given as a limit tells only on which side of the number the result lay.

The experiment addresses T1, purified human HDAC6 (Homo sapiens, UniProt Q9UBN7).
T1 construct: purchased BPS Bioscience 5006
T1 sequence (Q9UBN7 1-1215): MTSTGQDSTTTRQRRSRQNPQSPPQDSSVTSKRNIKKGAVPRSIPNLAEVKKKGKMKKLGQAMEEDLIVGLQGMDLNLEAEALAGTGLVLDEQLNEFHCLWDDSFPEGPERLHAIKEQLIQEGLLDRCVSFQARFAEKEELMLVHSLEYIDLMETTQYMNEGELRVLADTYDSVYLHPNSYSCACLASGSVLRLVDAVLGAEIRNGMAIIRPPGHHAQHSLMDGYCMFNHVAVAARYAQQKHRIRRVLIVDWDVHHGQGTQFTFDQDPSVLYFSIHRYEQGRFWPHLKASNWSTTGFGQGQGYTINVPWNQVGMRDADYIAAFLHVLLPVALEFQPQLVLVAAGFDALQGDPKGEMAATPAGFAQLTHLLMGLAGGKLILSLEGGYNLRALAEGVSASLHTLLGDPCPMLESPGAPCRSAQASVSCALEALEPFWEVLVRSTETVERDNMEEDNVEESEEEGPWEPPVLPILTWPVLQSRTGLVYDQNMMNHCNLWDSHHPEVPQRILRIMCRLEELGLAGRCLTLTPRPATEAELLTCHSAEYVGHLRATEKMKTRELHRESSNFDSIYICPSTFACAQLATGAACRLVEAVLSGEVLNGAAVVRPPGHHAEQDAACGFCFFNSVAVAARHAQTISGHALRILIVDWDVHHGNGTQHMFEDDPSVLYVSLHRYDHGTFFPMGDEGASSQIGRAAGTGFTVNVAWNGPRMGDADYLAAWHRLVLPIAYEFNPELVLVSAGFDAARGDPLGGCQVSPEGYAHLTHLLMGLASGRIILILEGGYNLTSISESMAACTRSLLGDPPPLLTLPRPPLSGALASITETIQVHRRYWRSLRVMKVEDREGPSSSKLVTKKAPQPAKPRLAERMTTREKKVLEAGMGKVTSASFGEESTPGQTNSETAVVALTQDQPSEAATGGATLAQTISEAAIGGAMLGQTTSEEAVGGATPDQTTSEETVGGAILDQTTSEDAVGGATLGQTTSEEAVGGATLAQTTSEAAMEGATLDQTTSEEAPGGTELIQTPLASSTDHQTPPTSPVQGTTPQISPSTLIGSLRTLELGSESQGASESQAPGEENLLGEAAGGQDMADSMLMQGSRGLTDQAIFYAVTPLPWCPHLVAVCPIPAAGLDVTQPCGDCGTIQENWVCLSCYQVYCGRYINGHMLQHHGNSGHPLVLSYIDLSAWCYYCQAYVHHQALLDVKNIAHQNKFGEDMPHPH
Briefly: HDAC6 Enzyme Assay. The format is biochemical. As to the method: To measure the inhibition of HDAC6 activity, purified human HDAC6 (BPS Bioscience; Cat. No. 5006) is incubated with substrate Ac-Arg-Gly-Lys(Ac)-AMC peptide (Bachem Biosciences; Cat. No. I-1925) for 1 hour at 30° C. in the presence of test compounds or vehicle DMSO control. The reaction is stopped with the HDAC inhibitor trichostatin A (Sigma; Cat. No. T8552) and the amount of Arg-Gly-Lys-AMC generated is quantitated by digestion with trypsin (Sigma; Cat. No. T1426) and subsequent measurement of the amount of AMC released using a fluorescent plate reader (Pherastar; BMG Technologies) set at Ex 340 nm and Em 460 nm. Concentration response curves are generated by calculating the fluorescence increase in test compound-treated samples relative to DMSO-treated controls, and enzyme inhibition (IC50) values are determined from those curves.
`O=C(NO)c1ccc2c(c1)CCN(CCOc1ccccc1)C2` [Compound 63, N-hydroxy-2-(2-phenoxyethyl)-1,2,3,4-tetrahydroisoquinoline-6-carboxamide] returned an IC50 of 100 to 500 nM.
As for `O=C(NO)c1ccc2c(c1)CCN(C/C=C/c1ccccc1)C2` [Compound 64, N-hydroxy-2-[(2E)-3-phenylprop-2-en-1-yl]-1,2,3,4-tetrahydroisoquinoline-6-carboxamide], the figure is 100 to 500 nM.
For `O=C(NO)c1ccc2c(c1)CCN(Cc1ccc3nonc3c1)C2` [Compound 65, 2-(2,1,3-benzoxadiazol-5-ylmethyl)-N-hydroxy-1,2,3,4-tetrahydroisoquinoline-6-carboxamide] the value was 100 to 500 nM; for `O=C(NO)c1ccc2c(c1)CCN(Cc1ccc(C(F)(F)F)cc1)C2` [Compound 66, N-hydroxy-2-[4-(trifluoromethyl)benzyl]-1,2,3,4-tetrahydroisoquinoline-6-carboxamide], 100 to 500 nM; for `O=C(NO)c1ccc2c(c1)CCN(CCCOc1ccccc1)C2` [Compound 67, N-hydroxy-2-(3-phenoxypropyl)-1,2,3,4-tetrahydroisoquinoline-6-carboxamide], 100 to 500 nM.
For `O=C(NO)c1ccc2c(c1)CCN(Cc1ccc(-n3cccn3)cc1)C2` [Compound 68, N-hydroxy-2-[4-(1H-pyrazol-1-yl)benzyl]-1,2,3,4-tetrahydroisoquinoline-6-carboxamide] the value was 100 to 500 nM.
The compound `O=C(NO)c1ccc2c(c1)CCN(Cc1cccc3nsnc13)C2` [Compound 69, 2-(2,1,3-benzothiadiazol-4-ylmethyl)-N-hydroxy-1,2,3,4-tetrahydroisoquinoline-6-carboxamide] gave a half-inhibitory concentration (IC50) of 100 to 500 nM.
As for `O=C(NO)c1ccc2c(c1)CCN(Cc1nc(-c3ccc(Cl)cc3)no1)C2` [Compound 71, 2-{[3-(4-chlorophenyl)-1,2,4-oxadiazol-5-yl]methyl}-N-hydroxy-1,2,3,4-tetrahydroisoquinoline-6-carboxamide], the figure is 50 to 100 nM; as for `COc1ccccc1-c1nc(CN2CCc3cc(C(=O)NO)ccc3C2)no1` [Compound 72, N-hydroxy-2-{[5-(2-methoxyphenyl)-1,2,4-oxadiazol-3-yl]methyl}-1,2,3,4-tetrahydroisoquinoline-6-carboxamide], below 50 nM.
For `O=C(NO)c1ccc2c(c1)CCN(CCC(=O)N1CCc3ccccc31)C2` [Compound 73, 2-[3-(2,3-dihydro-1H-indol-1-yl)-3-oxopropyl]-N-hydroxy-1,2,3,4-tetrahydroisoquinoline-6-carboxamide] the value was 50 to 100 nM; for `O=C(NO)c1ccc2c(c1)CCN(Cc1nccn1Cc1ccccc1)C2` [Compound 74, 2-[(1-benzyl-1H-imidazol-2-yl)methyl]-N-hydroxy-1,2,3,4-tetrahydroisoquinoline-6-carboxamide], above 500 nM.
Compound `O=C(NO)c1ccc2c(c1)CCN(c1nc(-c3ccc4c(c3)OCCO4)cs1)C2` [Compound 75, 2-[4-(2,3-dihydro-1,4-benzodioxin-6-yl)-1,3-thiazol-2-yl]-N-hydroxy-1,2,3,4-tetrahydroisoquinoline-6-carboxamide] showed a 50% inhibitory concentration (IC50) below 50 nM.
As for `Cc1c(-c2csc(N3CCc4cc(C(=O)NO)ccc4C3)n2)sc2ccccc12` [Compound 76, N-hydroxy-2-[4-(3-methyl-1-benzothien-2-yl)-1,3-thiazol-2-yl]-1,2,3,4-tetrahydroisoquinoline-6-carboxamide], the figure is 50 to 100 nM; as for `O=C(NO)c1ccc2c(c1)CCN(c1nc(-c3cccc(Cl)c3)cs1)C2` [Compound 77, 2-[4-(3-chlorophenyl)-1,3-thiazol-2-yl]-N-hydroxy-1,2,3,4-tetrahydroisoquinoline-6-carboxamide], below 50 nM.
As for `Cn1cccc1C(=O)N1Cc2ccc(C(=O)NO)cc2C1` [Compound 78, N-hydroxy-2-[(1-methyl-1H-pyrrol-2-yl)carbonyl]isoindoline-5-carboxamide], the figure is below 50 nM.

For the origin of these results see patent US9096518B2, “Substituted hydroxamic acids and uses thereof” (Millennium Pharmaceuticals, Inc., priority 2009, dated 2015).
